Measurements as given in the supplement of paper PMC8960247.
Where a name gives a salt, the structure may show the parent alone. ± gives the standard error.

Key:
[1] = system: 621-102 (TSC2-deficient); experiment: relative viability vs DMSO; higher = less cytotoxic; conditions: serum: 10% FBS, 72 h
[2] = system: 621-103 (TSC2-rescued); experiment: as above; conditions: serum: 10% FBS, 72 h
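Further: immortalized renal angiomyolipoma cells stably carrying empty vector or TSC2, dosed in 384-well plates in DMEM, viability normalized to vehicle-treated wells within each plate.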

SMILES | relative viability ([1]; 0.0001 µM) [%] | relative viability ([1]; 0.001 µM) [%] | relative viability ([1]; 0.01 µM) [%] | relative viability ([1]; 0.1 µM) [%] | relative viability ([1]; 1 µM) [%] | relative viability ([1]; 10 µM) [%] | relative viability ([2]; 0.0001 µM) [%] | relative viability ([2]; 0.001 µM) [%] | relative viability ([2]; 0.01 µM) [%] | relative viability ([2]; 0.1 µM) [%] | relative viability ([2]; 1 µM) [%] | relative viability ([2]; 10 µM) [%]
COc1ccc([C@H]2CNC(=O)C2)cc1OC1CCCC1 [S-(+)-Rolipram] | 101 ± 4.1 | 102 ± 1.8 | 102 ± 3.9 | 101 ± 2.3 | 96.742 ± 0.089 | 103.39 ± 0.018 | 103 ± 5.1 | 100 ± 2 | 104 ± 3.3 | 104 ± 2.8 | 104 ± 3.2 | 106 ± 2.3
CN1CCC(CNc2ccc3ncc(-c4cccc(OC(F)(F)F)c4)n3n2)CC1 [SGI-1776] | 93.93 ± 0.059 | 110 ± 1.1 | 98.6 ± 2.4 | 96.61 ± 0.13 | 86.6 ± 1.3 | 0.96 ± 0.17 | 94.08 ± 0.52 | 101 ± 1.6 | 101 ± 1.6 | 98.8 ± 2.8 | 82.6 ± 2 | 0.884 ± 0.13
O=C(Nc1cccc(Cl)c1)Nc1ncc(CCNc2ncnc3ccsc23)s1 [SNS-314 Mesylate] | 107 ± 3 | 85.4 ± 1.4 | 83.06 ± 0.37 | 65.9 ± 0.75 | 79.5 ± 4.8 | 67.3 ± 1.1 | 102.7 ± 0.28 | 104 ± 1.1 | 98.4 ± 1.1 | 93.6 ± 1.6 | 89.5 ± 1.7 | 77.2 ± 2.1
CN1[C@@H]2C[C@@H](OC(=O)[C@H](CO)c3ccccc3)C[C@H]1[C@@H]1O[C@@H]12 [Scopolamine hydrobromide] | 127 ± 2.7 | 119 ± 5.9 | 120 ± 2.6 | 112 ± 1.9 | 115.3 ± 1.1 | 108 ± 3.8 | 102 ± 4 | 99.3 ± 2 | 96.3 ± 2.5 | 99.3 ± 1.4 | 100 ± 2.1 | 102 ± 1.5
Cc1ncc([N+](=O)[O-])n1CC(C)O (stereo not given) [Secnidazole] | 108.6 ± 0.66 | 118.1 ± 0.34 | 108 ± 3.4 | 101 ± 3.9 | 102.2 ± 0.53 | 111 ± 3 | 101 ± 2.1 | 105 ± 3.6 | 105 ± 4.5 | 105.2 ± 0.64 | 100 ± 4.3 | 93.6 ± 4.8
